Laboratory results as given in the supplement of paper PMC6965134.
± gives the standard deviation of the averaged measurements.

Assay: TIMS collisional cross section (CCS, N2) of the lipid ion; higher = larger ion cross section
Settings: ionization mode: positive, one isomer drawn

| SMILES | TIMS collisional cross section (sample type: HeLa) | TIMS collisional cross section (sample type: plasma) | TIMS collisional cross section (sample type: Liver) |
| --- | --- | --- | --- |
| CCCCCCCCCCCCCCCCC(=O)OC[C@@H](COC(=O)CCCCCCCCCCCC)OC(=O)CCCCCCCCCCCCCCC [TG 13:0_16:0_17:0] (ion (formula + adduct): [C49H94O6+NH4] 1+) | 308 Å² |  |  |
| CCCCCCCC/C=C\CCCCCCCC(=O)OC[C@@H](COC(=O)CCCCCCCCCCCC)OC(=O)CCCCCCCCCCCCCCC [TG 13:0_16:0_18:1] (ion (formula + adduct): [C50H94O6+NH4] 1+) |  | 309.5 Å² |  |
| CCCCCC/C=C\CCCCCCCC(=O)O[C@@H](COC(=O)CCCCCCC/C=C\CCCCCCCC)COC(=O)CCCCCCCCCCCC [TG 13:0_16:1_18:1] (ion (formula + adduct): [C50H92O6+NH4] 1+) | 306.8 Å² |  |  |
| CCCCC/C=C\C/C=C\CCCCCCCC(=O)OC[C@@H](COC(=O)CCCCCCCCCCCC)OC(=O)CCCCCCC/C=C\CCCCCC [TG 13:0_16:1_18:2] (ion (formula + adduct): [C50H90O6+NH4] 1+) |  | 305.3 Å² |  |
| CCCCCCCCCCCCCCC(=O)OC[C@@H](COC(=O)CCCCCCCCCCCCC)OC(=O)CCCCCCCCCCCCC [TG 14:0_14:0_15:0] (ion (formula + adduct): [C46H88O6+NH4] 1+) | 297.1 Å² |  |  |
| CCCCCCCCCCCCCCCC(=O)OC[C@@H](COC(=O)CCCCCCCCCCCCC)OC(=O)CCCCCCCCCCCCC [TG 14:0_14:0_16:0] (ion (formula + adduct): [C47H90O6+NH4] 1+) | 301.7 Å² | 301.3 ± 0.4 Å² |  |
| CCCCCC/C=C\CCCCCCCC(=O)OC[C@@H](COC(=O)CCCCCCCCCCCCC)OC(=O)CCCCCCCCCCCCC [TG 14:0_14:0_16:1] (ion (formula + adduct): [C47H88O6+NH4] 1+) | 299.3 Å² |  | 299.1 Å² |
| CCCCCCCCCCCCCCCCC(=O)OC[C@@H](COC(=O)CCCCCCCCCCCCC)OC(=O)CCCCCCCCCCCCC [TG 14:0_14:0_17:0] (ion (formula + adduct): [C48H92O6+NH4] 1+) | 304.6 Å² |  |  |
| CCCCCCCC/C=C\CCCCCCCC(=O)OC[C@@H](COC(=O)CCCCCCCCCCCCC)OC(=O)CCCCCCCCCCCCC [TG 14:0_14:0_18:1] (ion (formula + adduct): [C49H92O6+NH4] 1+) |  |  | 305.9 Å² |
| CCCC/C=C\CCCCCCCC(=O)O[C@H](COC(=O)CCCCCCCCCCCCC)COC(=O)CCCCCCCCCCCCCCC [TG 14:0_14:1_16:0] (ion (formula + adduct): [C47H88O6+NH4] 1+) |  |  | 299.8 Å² |
| CCCC/C=C\CCCCCCCC(=O)O[C@@H](COC(=O)CCCCCCC/C=C\CCCCCC)COC(=O)CCCCCCCCCCCCC [TG 14:0_14:1_16:1] (ion (formula + adduct): [C47H86O6+NH4] 1+) | 297.4 Å² |  |  |
| CCCCCCCCCCCCCCC(=O)OC[C@@H](COC(=O)CCCCCCCCCCCCC)OC(=O)CCCCCCCCCCCCCC [TG 14:0_15:0_15:0] (ion (formula + adduct): [C47H90O6+NH4] 1+) |  |  | 302 Å² |
| CCCCCCCCCCCCCCCC(=O)OC[C@@H](COC(=O)CCCCCCCCCCCCC)OC(=O)CCCCCCCCCCCCCC [TG 14:0_15:0_16:0] (ion (formula + adduct): [C48H92O6+NH4] 1+) |  | 304.83 ± 0.05 Å² | 304.9 Å² |
| CCCCCC/C=C\CCCCCCCC(=O)OC[C@@H](COC(=O)CCCCCCCCCCCCC)OC(=O)CCCCCCCCCCCCCC [TG 14:0_15:0_16:1] (ion (formula + adduct): [C48H90O6+NH4] 1+) | 302.8 Å² | 302.85 ± 0.49 Å² |  |
| CCCCC/C=C\CCCCCCCC(=O)O[C@H](COC(=O)CCCCCCCCCCCCC)COC(=O)CCCCCCCCCCCCCCC [TG 14:0_15:1_16:0] (ion (formula + adduct): [C48H90O6+NH4] 1+) |  |  | 303.1 Å² |
| CCCCCCCCCCCCCCCC(=O)OC[C@@H](COC(=O)CCCCCCCCCCCCC)OC(=O)CCCCCCCCCCCCCCC [TG 14:0_16:0_16:0] (ion (formula + adduct): [C49H94O6+NH4] 1+) | 308.5 Å² | 308.1 ± 0.22 Å² | 308.4 Å² |
| CCCCCC/C=C\CCCCCCCC(=O)OC[C@@H](COC(=O)CCCCCCCCCCCCC)OC(=O)CCCCCCCCCCCCCCC [TG 14:0_16:0_16:1] (ion (formula + adduct): [C49H92O6+NH4] 1+) | 306.03 ± 0.35 Å² | 306 ± 0.3 Å² | 306.1 Å² |
| CCCCCCCCCCCCCCCCC(=O)OC[C@@H](COC(=O)CCCCCCCCCCCCC)OC(=O)CCCCCCCCCCCCCCC [TG 14:0_16:0_17:0] (ion (formula + adduct): [C50H96O6+NH4] 1+) |  |  | 311.5 Å² |
| CCCCCCC/C=C\CCCCCCCC(=O)OC[C@@H](COC(=O)CCCCCCCCCCCCC)OC(=O)CCCCCCCCCCCCCCC [TG 14:0_16:0_17:1] (ion (formula + adduct): [C50H94O6+NH4] 1+) | 309.1 Å² |  | 309 Å² |
| CCCCCCCCCCCCCCCCCC(=O)OC[C@@H](COC(=O)CCCCCCCCCCCCC)OC(=O)CCCCCCCCCCCCCCC [TG 14:0_16:0_18:0] (ion (formula + adduct): [C51H98O6+NH4] 1+) |  |  | 314.3 Å² |
| CCCCCCCC/C=C\CCCCCCCC(=O)OC[C@@H](COC(=O)CCCCCCCCCCCCC)OC(=O)CCCCCCCCCCCCCCC [TG 14:0_16:0_18:1] (ion (formula + adduct): [C51H96O6+NH4] 1+) | 311.9 ± 0.14 Å² | 312.07 ± 0.22 Å² | 312.4 Å² |
| CCCCC/C=C\C/C=C\CCCCCCCC(=O)OC[C@@H](COC(=O)CCCCCCCCCCCCC)OC(=O)CCCCCCCCCCCCCCC [TG 14:0_16:0_18:2] (ion (formula + adduct): [C51H94O6+NH4] 1+) |  |  | 308.9 Å² |
| CCCCCCCCCCCCCCCCCCCC(=O)OC[C@@H](COC(=O)CCCCCCCCCCCCC)OC(=O)CCCCCCCCCCCCCCC [TG 14:0_16:0_20:0] (ion (formula + adduct): [C53H102O6+NH4] 1+) | 320.6 Å² |  |  |
| CCCCC/C=C\C/C=C\C/C=C\C/C=C\CCCC(=O)OC[C@@H](COC(=O)CCCCCCCCCCCCC)OC(=O)CCCCCCCCCCCCCCC [TG 14:0_16:0_20:4] (ion (formula + adduct): [C53H94O6+NH4] 1+) |  | 314.2 Å² |  |
| CC/C=C\C/C=C\C/C=C\C/C=C\C/C=C\CCCCCC(=O)OC[C@@H](COC(=O)CCCCCCCCCCCCC)OC(=O)CCCCCCCCCCCCCCC [TG 14:0_16:0_22:5] (ion (formula + adduct): [C55H96O6+NH4] 1+) | 318 Å² |  |  |
| CC/C=C\C/C=C\C/C=C\C/C=C\C/C=C\C/C=C\CCC(=O)OC[C@@H](COC(=O)CCCCCCCCCCCCC)OC(=O)CCCCCCCCCCCCCCC [TG 14:0_16:0_22:6] (ion (formula + adduct): [C55H94O6+NH4] 1+) | 317.6 Å² |  |  |
